One series has as its system HIV-1IIIB. Put plainly: Cellular anti-HIV assay in fresh human PBMC cultures (reverse transcriptase activity and/or p24 readout). The class given is cell-based. Here is the method:
The four modified peptides FB006M, FB007M, FB010M, and FB010KM were conjugated to human serum albumin (HSA) by mixing prior to the antiviral test. The results appear in Table 8 below, where IC50 value is the 50% viral inhibition drug concentration, and TC50 value is the 50% cytotoxicity drug concentration.
Pretitered aliquots of HIV-1IIIB was removed from the freezer (−80° C.) and thawed rapidly to room temperature in a biological safety cabinet immediately before use.
Fresh human PBMCs were isolated from screened donors, seronegative for HIV and HBV (Interstate Blood Bank, Inc.; Memphis, Tenn.). Cells were pelleted/washed 2-3 times by low speed centrifugation and resuspension in PBS to remove contaminating platelets. The Leukophoresed blood was then diluted 1:1 with Dulbecco's phosphate buffered saline (PBS) and layered over 14 mL of Lymphocyte Separation Medium in a 50 mL centrifuge tube and then centrifuged for 30 minutes at 600×g. Banded PBMCs were gently aspirated from the resulting interface and subsequently washed 2× with PBS by low speed centrifugation. After the final wash, cells were enumerated by trypan blue exclusion and re-suspended at 1×10^7 cells/mL in RPMI 1640 supplemented with 15% Fetal Bovine Serum (FBS), 2 mM L-glutamine, 4 μg/mL Phytohemagglutinin (PHA-P, Sigma). The cells were allowed to incubate for 48-72 hours at 37° C. After incubation, PBMCs were centrifuged and resuspended in RPMI 1640 with 15% FBS, 2 mM L-glutamine, 100 U/mL penicillin, 100 μg/mL streptomycin, 10 μg/mL gentamycin, and 20 U/mL recombinant human IL-2 (R&D Systems, Inc). […]
For the standard PBMC assay, PHA-P stimulated cells from at least two normal donors were pooled, diluted in fresh medium to a final concentration of 1×10^6 cells/mL, and plated in the interior wells of a 96 well round bottom microplate at 50 μL/well (5×10^4 cells/well). […] Following removal of supernatant samples, compound cytotoxicity was measured by addition of MTS to the plates for determination of cell viability. […]

Series [1] is described as follows: Cytotoxicity in PBMCs by MTS (secondary cytotoxicity assay, high-test concentration 25 μM). The note with it: human PBMCs, MTS cell viability; modified peptides conjugated with HSA; FB005, FB006 unmodified; read-out: TC50 (50% cytotoxicity drug concentration). In kind it is cell-based. Here is the method: For the standard PBMC assay, PHA-P stimulated cells from at least two normal donors were pooled, diluted in fresh medium to a final concentration of 1×10^6 cells/mL, and plated in the interior wells of a 96 well round bottom microplate at 50 μL/well (5×10^4 cells/well). Each plate contains virus/cell control wells (cells plus virus), experimental wells (drug plus cells plus virus) and compound control wells ([…], necessary for MTS monitoring of cytotoxicity). Since HIV-1 is not cytopathic to PBMCs, this allows the use of the same assay plate for both antiviral activity and cytotoxicity measurements. Test drug dilutions were prepared at a 2× concentration in microtiter tubes and 100 μL of each concentration was placed in appropriate wells using the standard format. 50 μL of a predetermined dilution of virus stock was placed in each test well (final MOI≈0.1). The PBMC cultures were maintained for seven days following infection at 37° C., 5% CO2, after which cell-free supernatant samples were collected for analysis of reverse transcriptase activity and/or HIV p24 content. Following removal of supernatant samples, compound cytotoxicity was measured by addition of MTS to the plates for determination of cell viability. Wells were also examined microscopically and any abnormalities noted. […]

[2] abbreviates: HIV-1IIIB in fresh human PBMCs, seven days, FB006M, FB007M, FB010M, FB010KM conjugated with HSA prior to test, FB005, FB006 unmodified peptide, read-out: IC50 (50% viral inhibition drug concentration).

Where two headings read alike, the source gives them in different places.

Regarding “Ac-WEEWDREINNYTKLIHELIEESQNQQEKNEQELL-NH2 [FB006]”, the IC50 was found to be 1.4 nM in the series on HIV-1IIIB (FB006M and FB007M linked to serum albumin, read-out: IC50 (drug concentration for achieving 50% viral inhibition)); 1.41 nM in the series with HIV-1IIIB (setting [2]). In addition, in series [1], the CC50 at 7 days stood at 15900 nM.
“Ac-SLEQIWNNMTWEEWDREINNYTELIHELIEESQNQQEKNEQELL-NH2 [FB005]”: the IC50 in the series with HIV-1IIIB (setting [2]) was found to be 0.93 nM. In series [1], the CC50 at 7 days was found to be 14300 nM.

For the origin of these results see patent US8470527B2, “Method of inhibiting HIV-1 replication by administering modified GP41 C34 peptide derivatives with enhanced pharmacological properties” (Frontier Biotechnologies, Co., Ltd., priority 2002, dated 2013).
